Where two headings read alike, the source gives them in different places.
How the values were obtained:
CYP1A2 [1] = target: T1, CYP1A2 (Homo sapiens, UniProt P05177); assay type: cell-based; set-up: The activity levels of CYP3A4 and CYP1A2 in cells were measured according to the manufacturer's protocol for non-lytic cell-based assays; endogenous in cells; host or cells: HepG2; details: human
Procedure: (§1) The CYP450-Glo™ CYP3A4 assay with luciferin-IPA (V9001) and the CYP450-Glo™ CYP1A2 assay with luciferin-1A2 (V8421) were purchased from Promega, Madison, WI. The activity levels of CYP3A4 and CYP1A2 in cells were measured according to the manufacturer's protocol for non-lytic cell-based assays. Luminescent signals were recorded using a SpectraMax M2e microplate reader (Molecular Devices, Sunnyvale, CA, USA). Control wells with no cells were included to obtain background luminescence. The net signal for each sample was obtained by subtracting the background luminescence value.
(§2) CYP3A4 or CYP1A2 activity per cell can be obtained by normalizing CYP450-Glo™ values with cell numbers. After a sample was analyzed for CYP3A4 or CYP1A2 activity, the CTG® assay was performed to obtain an estimate of the number of viable cells in the sample. The result from CYP450-Glo™ was then divided by the CTG® value to obtain the average CYP3A4 or CYP1A2 activity per cell.

HepaRG™ cells = system: HepaRG™ cells
Source text: Cryopreserved HepaRG™ (HPRGC10), a terminally differentiated hepatic cell line, was purchased from ThermoFisher Scientific (Waltham, MA). HepaRG™ was thawed and cultured according to manufacturer's instructions. Briefly, the general purpose working medium was WEM supplemented with 1X GlutaMAX™ and 1X HepaRG™ Thaw, Plate, & General Purpose Medium Supplement. The metabolism working medium was WEM supplemented with 1X GlutaMAX™ and HepaRG™ Maintenance/Metabolism Medium Supplement. HepaRG™ cells were thawed in the general purpose working medium and plated in a 96-well plate coated with collagen I at 100 000 cells/well. One day after plating, the general purpose working medium was changed to the metabolism working medium. The metabolism working medium was renewed on day 4 and day 6 after plating. On day 7, the cells were treated in the metabolism working medium.
(§3) To load cells into microwells, ∼2000–200 000 cells in suspension were placed into each macrowell, and the chip was incubated at 37°C in the presence of 5% CO2 for 15 min. Cell were loaded into microwells by gravity, and excess cells were then washed off with PBS by shear force. The chip was covered with a layer of overlay agarose (1% w/v low-melting point agarose solution in PBS, kept molten at 43°C until use). For complete gelation of the overlay agarose, the chip was kept at room temperature for two minutes followed by 2 min at 4°C.
(§4) The alkaline comet assay was performed as previously ([15],[79]). Sodium chloride (NaCl, 7581), disodium EDTA (Na2EDTA, 4931), and sodium hydroxide pellets (NaOH, 7708) were purchased from VWR, Radnor, PA. Trizma® base (T1503), Trizma® HCl (T5941) and Triton X-100 (X-100) were obtained from MilliporeSigma, St. Louis, MO. 10 000× SYBR™ Gold nucleic acid gel stain was obtained from ThermoFisher Scientific, Waltham, MA.
(§5) The alkaline lysis buffer (pH ∼ 10) was a solution of 2.5 M NaCl, 100 mM Na2EDTA, 10 mM Trizma® base, and 1% (v/v) Triton X-100 dissolved in deionized H2O (dI H2O). […] The neutralization buffer (pH ∼ 7.5) was prepared by dissolving Trizma® HCl in distilled H2O to a final concentration of 0.4 M.
(§6) Cells encapsulated in CometChip were lysed in the alkaline lysis buffer overnight at 4°C. The nuclei were unwound in the alkaline unwinding buffer for 40 min at 4°C, and the DNA was electrophoresed in the same buffer at the same temperature for 30 min at 1 V/cm and ∼300 mA. The CometChip was then washed three times in neutralization buffer by submerging for 5 min each time.
(§7) The DNA on CometChip was stained for 15 min at room temperature with 1× of SYBR™ Gold diluted in PBS, protected from light. Fluorescent images of the comets were captured at 40× magnification using an epifluorescence microscope (Nikon Eclipse 80i, Nikon Instruments, Inc., Melville, NY, USA) with a 480 nm excitation filter. Image acquisition was achieved by automatic scanning using a motorized XY stage. Comet images were automatically analyzed using Guicometanalyzer, a custom software developed in MATLAB (The MathWorks Inc., Natick, MA, USA) as previously described ([15]). For each condition, 100 comets or more were analysed. Outputs from Guicometanalyzer were processed and imported to a spreadsheet (Microsoft Excel, Microsoft Office Suite 2016) using Comet2Excel, an in-house software developed in Python (Python Software Foundation, Python version 2.7.10). Software is freely available upon request.
For this experiment, the comets were analysed using Trevigen® Comet Analysis Software.
(§8) A vehicle control condition was included by diluting DMSO in cell culture medium to get a final concentration of 0.5%. Cells were incubated with the test compound for 24 h at 37°C in the presence of 5% CO2.
HepaRG™ were incubated with the test compound for 24 h at 37°C in the presence of 5% CO2. A vehicle control (1% DMSO) was included.

HepG2 cells = system: HepG2 cells
Procedure: HepG2 (ATCC® HB-8065™), an immortalized cell line derived from human hepatocellular carcinoma, was obtained from the American Type Culture Collection (Manassas, VA). HepG2 cells were cultured in high-glucose DMEM supplemented with 10% FBS, 1× GlutaMAX™, and 100 U/ml Pen-Strep. For chemical exposures, exponentially growing cells were plated in a tissue cultured treated 96-well plate two days before treatment.
as §3, §4, §5, §6, §7, §8
HepG2 were incubated with the test compound for 24 h at 37°C in the presence of 5% CO2. A vehicle control (0.07% sodium bicarbonate) was included.
Cells embedded in CometChip were placed on ice and irradiated with 0, 0.9, 1.8, 3.6, 5.4, 7.2 and 9 Gy of gamma rays from a Cs 137 radiation source with a dose rate of 0.9 Gy/min. The irradiated cells were submerged into lysis buffer overnight and the alkaline CometChip assay performed as described above.

CYP1A2 [2] = target: T1, CYP1A2; assay type: cell-based; details: human
Procedure: as §1, §2

Xpa−/− mouse hepatocytes = details: presence of HU/AraC, 24 h, compared with WT
Procedure: as §6
as §7, with “Outputs from Guicometanalyzer were processed and imported to a spreadsheet (Microsoft Excel, Microsoft Office Suite 2016) using Comet2Excel, an in-house software developed in Python (Python Software Foundation, Python version 2.7.10). Software is freely available upon request.” left out
(§9) Primary mouse hepatocytes were obtained from 10 to 14 weeks old C57Bl6 mice using a standard two-step collagenase liver perfusion procedure with minor changes ([80],[81]). […] Cell viability and cell number were analyzed using an automated Trypan Blue exclusion system [Vi-CELL™ cell counter (Beckman Coulter Life Sciences, Brea, CA)]. […]

[3] = system: primary mouse hepatocytes; details: WT primary mouse hepatocytes; absence of HU/AraC; 24 h
Procedure: as §6
as §7, with “Outputs from Guicometanalyzer were processed and imported to a spreadsheet (Microsoft Excel, Microsoft Office Suite 2016) using Comet2Excel, an in-house software developed in Python (Python Software Foundation, Python version 2.7.10). Software is freely available upon request.” left out
as §9

CYP1A2 [4] = target: T1, CYP1A2; assay type: cell-based; set-up: endogenous in cells; details: HepaRG; B[a]P 24 h
Procedure: as §1, §2

CYP1A2 [5] = target: T1, CYP1A2; assay type: cell-based; set-up: endogenous in cells; host or cells: HepG2; details: HepG2; B[a]P 24 h
Procedure: as §1, §2

T1 sequence (P05177 whole entry): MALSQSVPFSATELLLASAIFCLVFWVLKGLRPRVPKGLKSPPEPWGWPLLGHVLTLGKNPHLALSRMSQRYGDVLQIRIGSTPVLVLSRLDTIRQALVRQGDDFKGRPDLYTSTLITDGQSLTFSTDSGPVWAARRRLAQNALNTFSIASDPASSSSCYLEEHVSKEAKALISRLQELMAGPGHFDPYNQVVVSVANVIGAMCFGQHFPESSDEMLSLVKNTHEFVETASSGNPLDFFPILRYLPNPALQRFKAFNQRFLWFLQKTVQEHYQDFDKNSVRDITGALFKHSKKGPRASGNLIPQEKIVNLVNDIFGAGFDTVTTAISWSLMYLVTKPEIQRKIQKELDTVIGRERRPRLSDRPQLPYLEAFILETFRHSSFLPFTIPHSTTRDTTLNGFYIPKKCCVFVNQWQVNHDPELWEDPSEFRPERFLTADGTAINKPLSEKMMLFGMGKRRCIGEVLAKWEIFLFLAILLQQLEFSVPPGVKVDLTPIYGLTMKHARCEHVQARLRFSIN

SMILES	DNA damage by inhibitor alone (TK6 cells)	B[a]P induction of CYP1A2 in the presence of ANF (CYP1A2 [1])	DNA damage by inhibitor alone (HepaRG™ cells)	Level of B[a]P-induced SSBs in the presence of ANF (HepaRG™ cells)	DNA damage by inhibitor alone (HepG2 cells)	Level of B[a]P-induced SSBs in the presence of ANF (HepG2 cells)	B[a]P induction of CYP1A2 in the presence of ANF (CYP1A2 [2])	SSBs (Xpa−/− mouse hepatocytes)	SSBs [3]	Genotoxicity Alkaline CometChip HepaRG (+ HU + AraC) +/− (HepaRG™ cells)	Genotoxicity Alkaline CometChip HepaRG +/− (HepaRG™ cells)	CYP1A2 activity level (induction) (CYP1A2 [4])	CYP1A2 activity level (induction) (CYP1A2 [5])
O=c1cc(-c2ccccc2)oc2c1ccc1ccccc12 [ANF, α-Naphthoflavone]	does not induce DNA damage	induction of CYP1A2 is prevented	does not induce DNA damage	near background levels	does not induce DNA damage	near background levels	induction of CYP1A2 is prevented						
c1ccc2c(c1)cc1ccc3cccc4ccc2c1c34 [B[a]P, Benzo[a]pyrene]								not significantly	significant, but relatively small, increase in SSBs	+	−	induced in a dose-dependent manner	induced in a dose-dependent manner

From article PMC7026589, “Sensitive CometChip assay for screening potentially carcinogenic DNA adducts by trapping DNA repair intermediates” (Nucleic Acids Research, 2019)
